These results are taken from DBAASP.

Values after ≈ are worked out from the molar mass of the structure shown. Values joined by “and” are separate entries in the source; they are usually repeats but may differ in a detail not shown here. Equal entries are not always repeated.

Among the test systems are Escherichia coli W160-37; Staphylococcus aureus; Escherichia coli 1342; Escherichia coli 1334; Candida glabrata 0902; Candida glabrata 090902; Nocardia asteroides; Bacillus megaterium Bm11; Escherichia coli D21.
What all share (test): ≥ marks a high value that may be exact or a test limit, other limits are often not marked, values filed in µg/mL are converted to µM
For assay [1], the system named is Escherichia coli ATCC 25922.
For assay [2], the system named is Pseudomonas aeruginosa ATCC 27853.
Assay [3] relates to Staphylococcus epidermidis.
Assay [4] concerns Pseudomonas aeruginosa 1412.
Assay [5] deals with Staphylococcus aureus 1303.
The test system of assay [6] is Staphylococcus aureus 1349.
The test system of assay [7] is Pseudomonas aeruginosa 1413.
In assay [8] the test system is Candida albicans ATCC 2002.
For assay [9], the system named is Staphylococcus aureus ATCC 2592.
Assay [10] deals with Pseudomonas aeruginosa 1411.
Assay [11] deals with Cutibacterium acnes ATCC 11827.
Assay [12] has as its system Psychrobacter faecalis X29.
Assay [13] concerns Staphylococcus aureus ATCC 25923.
The test system of assay [14] is Enterococcus faecalis 981.
Assay [15] relates to Salmonella enterica subsp. enterica serovar Pullorum C79-13.
The test system of assay [16] is Staphylococcus epidermidis ATCC 12228.
Assay [17] has as its system Staphylococcus pseudintermedius.
For assay [18], the system named is Salmonella enterica subsp. enterica serovar Typhimurium C77-31.
Assay [19] has as its system Bacillus subtilis CMCC 63501.
The subject of assay [20] is Aeromonas veronii biovar sobria BJCP-5.
For assay [21], the system named is Candida albicans ATCC 10231.
Assay [22] deals with Salmonella enterica subsp. enterica serovar Enteritidis.
Assay [23] deals with Enterococcus faecalis ATCC 29212.
In assay [24] the test system is Staphylococcus aureus ATCC 29213.
The test system of assay [25] is Salmonella typhimurium SL1344.
For assay [26], the system named is Staphylococcus aureus ATCC 33591.
Assay [27] relates to Salmonella enterica subsp. enterica serovar Typhimurium LT2.
The subject of assay [28] is Acinetobacter calcoaceticus Ac11.
In assay [29] the test system is Bacillus subtilis ATCC 6051.
The subject of assay [30] is Micrococcus luteus ATCC 9341.
Assay [31] deals with Escherichia coli ATCC BAA-3051.
Assay [32] relates to Candida albicans ATCC 37092.

Broadly, the MIC is the lowest concentration found to suppress growth. Take `CC[C@H](C)[C@H](NC(=O)[C@H](Cc1c[nH]c2ccccc12)NC(=O)[C@H](CCCCN)NC(=O)[C@H](CO)NC(=O)[C@H](CC(C)C)NC(=O)[C@H](Cc1ccccc1)NC(=O)[C@H](CCCCN)NC(=O)[C@H](CC(C)C)NC(=O)[C@H](CC(C)C)NC(=O)[C@H](CCCCN)NC(=O)[C@@H]1CCCN1)C(=O)NCC(=O)O` [PKLLKFLSKWIG]: the MIC in the assay on Escherichia coli W160-37 came to 24 µM (≈ 34.3 µg/mL); against Staphylococcus aureus it was 14 µM (≈ 20 µg/mL).
Consider `CC[C@H](C)[C@H](NC(=O)[C@H](Cc1cnc[nH]1)NC(=O)[C@H](CO)NC(=O)CNC(=O)[C@H](CO)NC(=O)CNC(=O)[C@@H](NC(=O)[C@H](CO)NC(=O)[C@H](CCCN=C(N)N)NC(=O)[C@H](CC(C)C)NC(=O)[C@H](CCCCN)NC(=O)[C@H](CCC(N)=O)NC(=O)[C@H](CCCCN)NC(=O)[C@H](CC(C)C)NC(=O)[C@H](CCC(N)=O)NC(=O)[C@@H]1CSSC[C@H](NC(=O)[C@H](CCCCN)NC(=O)CN)C(=O)N[C@@H](CC(N)=O)C(=O)N[C@@H](C(C)C)C(=O)N[C@@H](CC(C)C)C(=O)N1)[C@@H](C)CC)C(=O)NCC(=O)N[C@@H](CO)C(=O)N[C@H](C(=O)N[C@H](C(=O)N[C@@H](CC(C)C)C(=O)N1CCC[C@H]1C(=O)N[C@@H](CCCN=C(N)N)C(=O)NCC(=O)O)C(C)C)C(C)C` [GKCNVLCQLKQKLRSIGSGSHIGSVVLPRG], for which the MIC is 2.27 µM (≈ 7.11 µg/mL) in assay [1]; 4.54 µM (≈ 14.2 µg/mL) in [2]; 4.54 µM (≈ 14.2 µg/mL) in [3]; 9.08 µM (≈ 28.5 µg/mL) in assay [4]; 4.54 µM (≈ 14.2 µg/mL) in [5]; 9.08 µM (≈ 28.5 µg/mL) in assay [6]. Further, the MIC stood at 4.54 µM (≈ 14.2 µg/mL) in [7]; 1.13 µM (≈ 3.54 µg/mL) in [8]; 2.27 µM (≈ 7.11 µg/mL) with Staphylococcus aureus; 9.08 µM (≈ 28.5 µg/mL) against Escherichia coli 1342; 2.27 µM (≈ 7.11 µg/mL) in [9]; 4.54 µM (≈ 14.2 µg/mL) in the assay on Escherichia coli 1334. Moreover, the MIC in assay [10] stood at 4.54 µM (≈ 14.2 µg/mL); in [11], 18.2 µM (≈ 57 µg/mL); in the assay on Candida glabrata 0902, 4.54 µM (≈ 14.2 µg/mL).
For the compound `CC[C@H](C)[C@H](NC(=O)[C@H](CC(C)C)NC(=O)CNC(=O)[C@@H](NC(=O)[C@@H](NC(=O)[C@@H](N)Cc1ccccc1)[C@@H](C)CC)[C@@H](C)O)C(=O)N[C@@H](CO)C(=O)NCC(=O)N[C@@H](CC(C)C)C(=O)N[C@@H](CCSC)C(=O)N[C@@H](CCCCN)C(=O)N[C@@H](C)C(=O)N[C@@H](CC(C)C)C(N)=O` [FITGLISGLMKAL], the MIC in [12] is at least 200 µM; with Candida glabrata 090902, at least 100 µM; in assay [13], 12.5 µM (≈ 17 µg/mL); against Nocardia asteroides, 12.5 µM (≈ 17 µg/mL); in assay [14], 25 µM (≈ 34.1 µg/mL).
Turning to `CC[C@H](C)[C@H](NC(=O)[C@@H]1CCCN1C(=O)[C@@H](N)CO)C(=O)N[C@@H](Cc1cnc[nH]1)C(=O)N[C@@H](C)C(=O)N[C@H]1CSSC[C@@H]2NC(=O)[C@H](CO)NC(=O)[C@H](CCCCN)NC(=O)[C@H](CC(C)C)NC(=O)CNC(=O)[C@H](CO)NC(=O)CNC(=O)[C@@H]3CSSC[C@H](NC(=O)[C@H](C(C)C)NC(=O)CNC(=O)[C@H](CCCN=C(N)N)NC(=O)[C@H](CCC(N)=O)NC(=O)[C@H](Cc4ccc(O)cc4)NC(=O)[C@H](CCCN=C(N)N)NC1=O)C(=O)N[C@@H]([C@@H](C)CC)C(=O)N1CCC[C@H]1C(=O)NCC(=O)N1CCC[C@H]1C(=O)N[C@@H](CSSC[C@@H](C(=O)N[C@H](C(=O)N[C@@H](CCCN=C(N)N)C(=O)N[C@@H](CC(N)=O)C(=O)N[C@@H](CCCN=C(N)N)C(=O)N[C@@H](Cc1c[nH]c4ccccc14)C(=O)N[C@@H](C)C(=O)O)C(C)C)NC2=O)C(=O)N[C@@H](CCCN=C(N)N)C(=O)N[C@@H](Cc1c[nH]c2ccccc12)C(=O)N1CCC[C@H]1C(=O)N[C@@H](Cc1ccc(O)cc1)C(=O)N[C@@H](Cc1ccc(O)cc1)C(=O)N[C@@H](CCCN=C(N)N)C(=O)N[C@@H](C(C)C)C(=O)NCC(=O)N[C@@H](CO)C(=O)N3` [SPIHACRYQRGVCIPGPCRWPYYRVGSCGSGLKSCCVRNRWA], the MIC in [15] was 2.23 µM (≈ 10.6 µg/mL); in [16] it was 2.23 µM (≈ 10.6 µg/mL); in [17], at least 54 µM; in assay [18] it was 2.23 µM (≈ 10.6 µg/mL); in assay [19], 8 µM (≈ 37.9 µg/mL); in [20] it was 0.5 µM (≈ 2.37 µg/mL). Further, the MIC in assay [21] is 16 µM (≈ 75.8 µg/mL); in assay [22], 4 µM (≈ 19 µg/mL); in assay [23] it was 2 µM (≈ 9.48 µg/mL); in assay [13], 0.569 µM (≈ 2.7 µg/mL); in [24] it was 54 µM and > 27 µM.
With `CC[C@H](C)[C@H](N=C(O)[C@H](CC(C)C)N=C(O)[C@H](C)N=C(O)[C@H](Cc1ccccc1)N=C(O)[C@H](Cc1ccccc1)N=C(O)CN)C(=O)N1CCC[C@H]1C(O)=N[C@@H](CCCCN)C(O)=N[C@H](C(O)=N[C@H](C(O)=N[C@@H](CO)C(O)=N[C@@H](CO)C(=O)N1CCC[C@H]1C(O)=N[C@@H](CC(C)C)C(O)=N[C@@H](Cc1ccccc1)C(O)=N[C@@H](CCCCN)C(O)=N[C@H](C(O)=N[C@@H](CC(C)C)C(O)=N[C@@H](CC(C)C)C(O)=N[C@@H](CO)C(O)=N[C@@H](C)C(O)=N[C@H](C(O)=NCCN)C(C)C)[C@@H](C)O)[C@@H](C)CC)[C@@H](C)CC` [GFFALIPKIISSPLFKTLLSAV], the MIC in assay [1] is 13.2 µM (≈ 31.9 µg/mL); in assay [25] it was at least 52.9 µM; in assay [2], over 100 µM; against Bacillus megaterium Bm11 it was 6.2 µM (≈ 14.9 µg/mL); in [26] it was 3.3 µM (≈ 7.94 µg/mL); in assay [23] it was 3.3 µM (≈ 7.94 µg/mL). Moreover, the MIC in assay [27] was at least 100 µM; in assay [28] it was at least 100 µM; in assay [29] it was 20 µM (≈ 48.1 µg/mL); in assay [30], at least 100 µM; against Escherichia coli D21, at least 100 µM; in assay [24], 3.3 µM (≈ 7.94 µg/mL). Further, in assay [31], the MIC is 13.2 µM (≈ 31.9 µg/mL).
`CC[C@H](C)[C@H](NC(=O)[C@H](CCCN=C(N)N)NC(=O)[C@@H](N)CCCN=C(N)N)C(=O)N[C@@H](CCCN=C(N)N)C(=O)N1CCC[C@H]1C(=O)N[C@@H](CCCN=C(N)N)C(=O)N1CCC[C@H]1C(=O)O` [RRIRPRP]: the results for the minimum inhibitory concentration (MIC) in [1], in [32] and in assay [24] were over 500 µM, at least 500 µM and over 500 µM, respectively.
